Experimental findings from patent publication US9688699B2, “3-(pyrimidine-2-yl)imidazo[1,2-a]pyridines” (Bayer Pharma Aktiengesellschaft, priority 2014, dated 2017) are described below.

Structures can show the parent of a compound that is named as a salt.

Experiment [1] deals with T1, human phosphodiesterase 5 (PDE 5) (Homo sapiens, UniProt O76074).
T1 construct: PDE 5 preparations are obtained from human platelets by disruption; from tissue; host or cells: human platelets (Mono Q ion exchange fractions with PDE 5 activity)
Briefly: Inhibition of human phosphodiesterase 5 (PDE 5) (B-3). The format is biochemical. Particulars: PDE 5 preparation from human platelets; [8-3H] cGMP substrate, SPA; in some cases means of individual determinations. The method, boiled down: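 Enzyme partially purified from human platelets by Mono Q ion exchange; [8-3H]cGMP substrate (0.025 μCi), Tris-HCl pH 7.5 with MgCl2/EDTA, <70% conversion, 60 min at room temperature. Compounds tested at 4 to 0.0018 μM final; yttrium SPA bead read-out, IC50 from concentration–% inhibition plot.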

Experiment [2] concerns the target T2, recombinant guanylate cyclase reporter cell line (Rattus norvegicus, UniProt P19686+P20595).
T2 construct: expressed in transfected cells
T2 sequence (P19686 1-690): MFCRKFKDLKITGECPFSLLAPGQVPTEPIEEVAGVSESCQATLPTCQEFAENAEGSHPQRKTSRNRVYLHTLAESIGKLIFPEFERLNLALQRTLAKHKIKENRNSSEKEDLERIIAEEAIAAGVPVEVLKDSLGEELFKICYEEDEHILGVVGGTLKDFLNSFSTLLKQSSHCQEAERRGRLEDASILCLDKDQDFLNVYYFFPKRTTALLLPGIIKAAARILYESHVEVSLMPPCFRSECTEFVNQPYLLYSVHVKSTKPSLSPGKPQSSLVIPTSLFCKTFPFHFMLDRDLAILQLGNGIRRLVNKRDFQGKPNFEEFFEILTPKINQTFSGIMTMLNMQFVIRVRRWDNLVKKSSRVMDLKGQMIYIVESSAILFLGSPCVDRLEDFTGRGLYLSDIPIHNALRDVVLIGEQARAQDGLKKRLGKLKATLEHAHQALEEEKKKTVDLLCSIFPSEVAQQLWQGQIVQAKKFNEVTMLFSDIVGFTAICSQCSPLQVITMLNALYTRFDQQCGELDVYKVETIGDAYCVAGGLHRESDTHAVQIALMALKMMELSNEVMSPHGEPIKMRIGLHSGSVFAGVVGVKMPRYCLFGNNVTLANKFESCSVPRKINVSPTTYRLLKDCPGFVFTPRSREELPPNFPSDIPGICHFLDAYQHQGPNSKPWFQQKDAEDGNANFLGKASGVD
T2 sequence (P20595 1-619): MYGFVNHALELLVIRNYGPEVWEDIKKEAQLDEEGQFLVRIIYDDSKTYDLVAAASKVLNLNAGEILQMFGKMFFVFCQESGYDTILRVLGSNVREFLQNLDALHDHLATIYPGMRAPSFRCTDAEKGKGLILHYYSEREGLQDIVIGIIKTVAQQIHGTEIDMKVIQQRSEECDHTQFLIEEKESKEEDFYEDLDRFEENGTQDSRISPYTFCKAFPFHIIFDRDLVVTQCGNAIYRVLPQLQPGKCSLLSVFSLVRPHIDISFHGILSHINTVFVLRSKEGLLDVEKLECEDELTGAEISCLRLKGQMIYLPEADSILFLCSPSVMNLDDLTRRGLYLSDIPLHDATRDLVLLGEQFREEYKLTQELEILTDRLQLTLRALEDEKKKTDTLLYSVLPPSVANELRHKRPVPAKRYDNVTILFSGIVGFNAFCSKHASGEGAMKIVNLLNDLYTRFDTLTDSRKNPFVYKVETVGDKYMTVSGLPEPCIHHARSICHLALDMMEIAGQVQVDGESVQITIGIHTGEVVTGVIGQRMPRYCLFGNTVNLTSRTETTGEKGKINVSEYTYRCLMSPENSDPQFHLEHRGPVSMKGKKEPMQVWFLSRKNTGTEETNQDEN
Briefly: Effect on a recombinant guanylate cyclase reporter cell line (B-2). The format is cell-based. The following applies: MEC = minimum effective concentration, in some cases mean values for individual determinations. The method, boiled down:
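Cellular guanylate cyclase activity measured in a recombinant reporter cell line expressing rat soluble guanylate cyclase subunits. Values are minimum effective concentrations (MEC), some as means of individual determinations.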

One may read the IC50 as the concentration that gives 50% inhibition. Low readings indicate higher potency, high ones lower potency. In turn, `Cc1nc2c(OCc3c(F)cccc3F)cccn2c1-c1nc(NCC(C)(C)O)c2c(n1)NC(=O)C2(C)C` [Example 16, 2-{8-[(2,6-Difluorobenzyl)oxy]-2-methylimidazo[1,2-a]pyridin-3-yl}-4-[(2-hydroxy-2-methylpropyl)amino]-5,5-dimethyl-5,7-dihydro-6H-pyrrolo[2,3-d]pyrimidin-6-one] displayed an IC50 in experiment [1] of 4.8 nM. Moreover, the MEC in experiment [2] stood at 0.65 µM.
The compound `Cc1nc2c(OCc3c(F)cccc3F)cccn2c1-c1nc2c(c(C(=O)O)n1)C(C)(C)C(=O)N2` [Example 51, 2-{8-[(2,6-Difluorobenzyl)oxy]-2-methylimidazo[1,2-a]pyridin-3-yl}-5,5-dimethyl-6-oxo-6,7-dihydro-5H-pyrrolo[2,3-d]pyrimidine-4-carboxylic acid] came in with an IC50 in experiment [1] of 430 nM. Also, the MEC in experiment [2] was 10 µM.
`Cc1nc2c(OCc3c(F)cccc3F)cccn2c1-c1nc(O)c2c(n1)NC(=O)C2(C)C` [Example 5, 2-{8-[(2,6-Difluorobenzyl)oxy]-2-methylimidazo[1,2-a]pyridin-3-yl}-4-hydroxy-5,5-dimethyl-5,7-dihydro-6H-pyrrolo[2,3-d]pyrimidin-6-one trifluoroacetate] yielded an IC50 in experiment [1] of 690 nM. For the same compound, the MEC in experiment [2] worked out at 3 µM.
Regarding `Cc1nc2c(OCc3c(F)cccc3F)cccn2c1-c1nc2c(c(C(N)=O)n1)C(C)(C)C(=O)N2` [Example 50, 2-{8-[(2,6-Difluorobenzyl)oxy]-2-methylimidazo[1,2-a]pyridin-3-yl}-5,5-dimethyl-6-oxo-6,7-dihydro-5H-pyrrolo[2,3-d]pyrimidine-4-carboxamide hydrochloride], the IC50 in experiment [1] was 29 nM. Further, the MEC in experiment [2] was found to be 0.3 µM.
On to `CCCC(C)(N)CNc1nc(-c2c(C)nc3c(OCc4c(F)cccc4F)cccn23)nc2c1C(C)(C)C(=O)N2` (racemic) [Example 13, rac-4-[(2-Amino-2-methylpentyl)amino]-2-{8-[(2,6-difluorobenzyl)oxy]-2-methylimidazo[1,2-a]pyridin-3-yl}-5,5-dimethyl-5,7-dihydro-6H-pyrrolo[2,3-d]pyrimidin-6-one (racemate)], for which the midpoint of inhibition in experiment [1], the IC50, lay at 12 nM. Moreover, in experiment [2], the MEC was 1 µM.
The compound `COCC(C)(N)CNc1nc(-c2c(C)nc3c(OCc4c(F)cccc4F)cccn23)nc2c1C(C)(C)C(=O)N2` (single isomer, unassigned; ent-4) [Example 45, ent-4-[(2-Amino-3-methoxy-2-methylpropyl)amino]-2-{8-[(2,6-difluorobenzyl)oxy]-2-methylimidazo[1,2-a]pyridin-3-yl}-5,5-dimethyl-5,7-dihydro-6H-pyrrolo[2,3-d]pyrimidin-6-one (Enantiomer A)] showed an IC50 in experiment [1] of 9.8 nM. Besides, in experiment [2], the MEC came out at 1 µM.
For the compound `Cc1nc2c(OCc3c(F)cccc3F)cccn2c1-c1nc2c(c(-n3cc(O)cn3)n1)C(C)(C)C(=O)N2` [Example 43, 2-{8-[(2,6-Difluorobenzyl)oxy]-2-methylimidazo[1,2-a]pyridin-3-yl}-4-(4-hydroxy-1H-pyrazol-1-yl)-5,5-dimethyl-5,7-dihydro-6H-pyrrolo[2,3-d]pyrimidin-6-one], the midpoint of inhibition in experiment [1], the IC50, lay at 5.5 nM. In addition, the MEC in experiment [2] was 3 µM.
Regarding `Cc1nc2c(OCc3c(F)ccc(F)c3F)cccn2c1-c1nc(O)c2c(n1)NC(=O)C2(C)C` [Example 11, 4-Hydroxy-5,5-dimethyl-2-{2-methyl-8-[(2,3,6-trifluorobenzyl)oxy]imidazo[1,2-a]pyridin-3-yl}-5,7-dihydro-6H-pyrrolo[2,3-d]pyrimidin-6-one], it took 260 nM to reach half-maximal inhibition in experiment [1] (IC50). Further, the MEC in experiment [2] stood at 3 µM.
In the case of `Cc1nc2c(OCc3c(F)cccc3F)cccn2c1-c1nc2c(c(C(=O)NCC(C)(C)O)n1)C(C)(C)C(=O)N2` [Example 56, 2-{8-[(2,6-difluorobenzyl)oxy]-2-methylimidazo[1,2-a]pyridin-3-yl}-N-(2-hydroxy-2-methylpropyl)-5,5-dimethyl-6-oxo-6,7-dihydro-5H-pyrrolo[2,3-d]pyrimidine-4-carboxamide], the IC50 in experiment [1] turned out to be 1.3 nM. Besides, the MEC in experiment [2] is 0.3 µM.
